Here are results for 34 compounds from patent US7626021B2, “Fused ring heterocycle kinase modulators” (SGX Pharmaceuticals, Inc., priority 2004, dated 2009).

What is called IC50 is the point on the concentration scale where inhibition reaches its midpoint.

For this assay, the target named is T1, Abl T315I KD (unphosphorylated c-Abl T315I kinase domain) (Mus musculus, UniProt P00520, T315I).
T1 construct: purified and unphosphorylated T315I Abl kinase domain; made in house; host or cells: E. coli BL21(DE3)
T1 sequence (P00520 242-493 T315I limits assumed): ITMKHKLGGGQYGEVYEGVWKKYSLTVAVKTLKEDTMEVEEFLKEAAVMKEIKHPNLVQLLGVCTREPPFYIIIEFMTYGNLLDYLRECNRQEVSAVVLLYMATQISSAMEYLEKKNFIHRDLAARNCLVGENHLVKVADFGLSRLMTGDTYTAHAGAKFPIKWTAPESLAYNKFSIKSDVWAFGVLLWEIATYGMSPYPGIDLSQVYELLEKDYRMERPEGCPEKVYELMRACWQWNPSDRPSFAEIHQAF
The experiment in a line: c-Abl T315I (unphosphorylated kinase domain) enzyme assay, PK/LDH coupled. The assay is classed as biochemical. As to conditions: mutant Abl kinase domain at zero phosphorylation state; read-out: Abl_T215l—0P IC50. An excerpt: Although the first of these examples uses the kinase domain of a mutant form of Abl T315I (“Abl T315I KD”), the kinase assays may use various forms of mutant and wild type enzymes, including, for example, the entire protein, the kinase domain, or a portion thereof (e.g. Abl Y393F). The kinases used in the assays may also be of varying phosphorylation states. In the c-Abl example, a mutant kinase at a zero phosphorylation state was used.
c-Abl Pyruvate Kinase/Lactate Dehydrogenase Coupled Enzyme Assay
In the c-Abl Pyruvate Kinase (PK)/Lactate Dehydrogenase (LDH) Coupled Assay the protein kinase dependant phosphorylation of a substrate peptide was coupled to the oxidation of NADH. The oxidation of NADH to NAD+ was detected by monitoring a decrease in absorbance at 340 nm.
Materials: Abl substrate peptide=EAIYAAPFAKKK SEQ ID NO:1)-OH (Biopeptide, San Diego, Calif.); βNADH (Sigma Cat#N-8129, FW=709.4); 2M MgCl2; 1M HEPES buffer, pH 7.5; Phosphoenolpyruvate (PEP) (Sigma Cat#P-7002, FW=234); Lactate dehydrogenase (LDH) (Worthington Biochemical Cat#2756); Pyruvate Kinase (PK) (Sigma Cat#P-9136); ATP (Sigma Cat#A-3377, FW=551); Greiner 384-well UV star plate; and purified and unphosphorylated T315I Abl kinase domain.
Stock Solutions: 10 mM NADH (7.09 mg/ml in miliQH2O) made fresh daily; 10 mM Abl substrate peptide (13.4 mg/ml in miliQH2O) stored at −20° C.; 100 mM HEPES buffer, pH 7.5 (5 ml IM stock+45 ml miliQH2O); 100 mM MgCl2 (5 ml 2M MgCl2+95 ml dH2O); 100 mM PEP (23.4 mg/ml in dH2O) stored at −20° C.; 10 mM ATP (5.51 mg/ml in dH2O) stored at −20° C. (diluted 50 μl into total of 10 ml miliQH2O daily=50 μM ATP working stock); 1000 U/ml PK (U/mg varies with lot) flash-frozen under liquid N2 and stored at −80° C.; and 1000 U/ml LDH (U/mg varies with lot) flash-frozen under liquid N2 and stored at −80° C.
Standard Assay Setup for 384-well format (50 μl reaction): 300 μM NADH; 10 mM MgCl2; 2 mM PEP; 45 U/ml PK; 60 U/ml LDH; 200 μM Abl substrate peptide; 2.5 μl test compound (in DMSO); 2 μg/ml Abl kinase domain; 10 μM ATP; 100 mM HEPES buffer. Positive controls contained DMSO with no test compound. Negative controls contained 5 μl of 0.5M EDTA (50 mM in the assay). The dephosphorylated form of the c-Abl T315I mutant was used in the biochemical screening assays. The kinase reaction was initiated at time t=0 by the addition of ATP.
Activity was measured by following the time-dependent loss of NADH by absorbance spectroscopy at 340 nm. The linear portion of the resulting progress curve was then analyzed by linear regression to get the activity in absorbance units/time, reported as the slope of that best fit line (moles/unit time can be calculated from using molar extinction coefficient for NADH at 340 nm, 6250M^−1cm^−1).
Data was evaluated using the equation: Z′=1-[3*(σ++σ−)/|μ+−μ−|] (Zhang, et al., 1999 J Biomol Screening 4(2) 67-73), where […] the mean and σ the standard deviation. The subscript designates positive or negative controls. The Z′ score for a robust screening assay should be 0.50. The typical threshold=μ+−3*σ+. Any value that falls below the threshold was designated a “hit”.
Dose response was analyzed using the equation: y=min+{(max−min)/(1+10^[compound]-logIC50)}, where y is the observed initial slope, max=the slope in the absence of inhibitor, min=the slope at infinite inhibitor, and the IC50 is the [compound] that corresponds to ½ the total observed amplitude (Amplitude=max−min).
To measure modulation, activation, or inhibition of Abl KD, a test compound was added to the assay at a range of concentrations. Inhibitors may inhibit Abl KD activity at an IC50 in the micromolar range, the nanomolar range, or, for example, in the subnanomolar range.
As to `COc1ccccc1-c1n[nH]c2ncc(Br)cc12`, the IC50 is < 1000 nM. Regarding `c1ccc(-c2n[nH]c3ncc(-c4ccc5[nH]ccc5c4)cc23)cc1`, the IC50 is < 1000 nM. For the compound `Oc1cccc(-c2cnc3[nH]nc(-c4ccccc4)c3c2)c1`, the concentration for half-maximal inhibition (IC50) is < 1000 nM. Under `c1ccc(-c2n[nH]c3ncc(-c4cccnc4)cc23)cc1` stands < 1000 nM. `COc1ccccc1-c1n[nH]c2ncc(-c3cccnc3)cc12`: the IC50 is < 1000 nM. `COc1ccccc1-c1n[nH]c2ncc(-c3cccc(C(=O)N(C)C)c3)cc12`: the half-inhibitory concentration (IC50) is < 1000 nM.

Turning to `COc1ccccc1-c1n[nH]c2ncc(-c3ccc(O)c(C(=O)N4CCOCC4)c3)cc12`, the concentration for half-maximal inhibition (IC50) was < 1000 nM. Under `CCOc1ccccc1-c1n[nH]c2ncc(-c3cccc(C(=O)N4CCOCC4)c3)cc12` stands < 1000 nM.

For `COc1ncc(-c2n[nH]c3ncc(-c4cccc(C(=O)N5CCOCC5)c4)cc23)c(OC)n1`, the IC50 is < 1000 nM. In the case of `COc1ccccc1-c1cnc2[nH]nc(-c3ccccc3OC)c2c1`, the IC50 was < 1000 nM.

For `COc1ccccc1-c1n[nH]c2ncc(-c3cccc(C(=O)NC(C)C)c3)cc12`, the 50% inhibitory concentration (IC50) is < 1000 nM. In the case of `O=C(c1cccc(-c2cnc3[nH]nc(-c4ccc5cc[nH]c5c4)c3c2)c1)N1CCOCC1`, the half-maximal inhibitory concentration (IC50) is < 1000 nM. For `COc1ccccc1-c1n[nH]c2ncc(-c3cccc(C(=O)N4CCN(C)CC4)c3)cc12`, the half-maximal inhibitory concentration (IC50) was < 1000 nM.

Consider `CCc1ccccc1-c1n[nH]c2ncc(-c3cccc(C(=O)N4CCOCC4)c3)cc12`, for which the IC50 is < 1000 nM. The result for `Cc1cc(F)ccc1-c1n[nH]c2ncc(-c3cccc(C(=O)N4CCOCC4)c3)cc12` reads < 1000 nM; that for `COc1c(F)cccc1-c1n[nH]c2ncc(-c3cccc(C(=O)N4CCOCC4)c3)cc12`, < 1000 nM; that for `Cc1ccsc1-c1n[nH]c2ncc(-c3cccc(C(=O)N4CCOCC4)c3)cc12`, < 1000 nM.

For the compound `COc1ccccc1-c1n[nH]c2ncc(-c3cccc(C(=O)N4CCC(CO)CC4)c3)cc12`, the IC50 was < 1000 nM. For the compound `O=C(c1cccc(-c2cnc3[nH]nc(-c4cccc5cccnc45)c3c2)c1)N1CCOCC1`, the IC50 is < 1000 nM.

Take `Cn1ccc2cc(-c3n[nH]c4ncc(-c5cccc(C(=O)N6CCOCC6)c5)cc34)ccc21`: the IC50 was < 1000 nM. With `O=C(c1cccc(-c2cnc3[nH]nc(-c4ccncc4Cl)c3c2)c1)N1CCOCC1`, the half-maximal inhibitory concentration (IC50) was < 1000 nM. As to `COc1ccccc1-c1n[nH]c2ncc(-c3cccc(C(=O)N4CCCC4)c3)cc12`, the IC50 was < 1000 nM.

Take `COc1ccccc1-c1n[nH]c2ncc(-c3ccc(C(=O)N4CCCC4)cc3)cc12`: the IC50 was < 1000 nM. Turning to `COc1ccccc1-c1n[nH]c2ncc(-c3ccc(C(=O)NC4CC4)cc3)cc12`, the 50% inhibitory concentration (IC50) is < 1000 nM. As to `COc1ccccc1-c1n[nH]c2ncc(-c3cnc4[nH]n(C)c(=O)c4c3)cc12`, the IC50 is < 1000 nM. In the case of `COc1ccccc1-c1n[nH]c2ncc(-c3cccc(S(=O)(=O)NC4CC4)c3)cc12`, the IC50 was < 1000 nM. Turning to `COc1ccccc1-c1n[nH]c2ncc(-c3cccc(C(=O)N4CCN(CCN(C)C)CC4)c3)cc12`, the IC50 is < 1000 nM.

As to `CCN1CCN(C(=O)c2cccc(-c3cnc4[nH]nc(-c5cc(F)ccc5OC)c4c3)c2)CC1`, the 50% inhibitory concentration (IC50) is < 1000 nM. Consider `COc1cc(-c2cnc3[nH]cc(-c4ccc(C)cc4)c3n2)ccc1O`, for which the IC50 was < 1000 nM.

As for `COc1ccccc1-c1n[nH]c2ncc(-c3ccc(C(=O)N4CCN(C)CC4)cc3)cc12`, the concentration for half-maximal inhibition (IC50) is < 1000 nM. Consider `COc1cc(-c2cnc3[nH]nc(-c4ccccc4)c3c2)ccc1O`, for which the half-inhibitory concentration (IC50) was < 1000 nM. Turning to `COc1ccccc1-c1n[nH]c2ncc(-c3ccc(C(=O)N4CCCCC4)cc3)cc12`, the half-inhibitory concentration (IC50) was < 1000 nM. As to `COc1ccccc1-c1n[nH]c2ncc(-c3ccc(C(=O)N4CCOCC4)cc3)cc12`, the IC50 was < 1000 nM. For the compound `COc1ccccc1-c1c[nH]c2ncc(-c3cccc(C(=O)N(C)C)c3)nc12`, the IC50 is < 1000 nM.
